{FAM} = fluorescein (FAM) label
Test: Agarose gel electrophoresis of oligonucleotide after X-ray exposure
Type: physicochemical
Conditions: X-ray 1, 2 and 4 Gy, compared with the control
Experimental: The PC12, HCT116 and CCD 841 CoN cells (1-4×10^4/mL) were, respectively, grown on 96-well plates in a culture medium with 10% FBS for 24 hr. For liposome and LipoDox treatment experiments, the PC12 cells and CCD 841 CoN cells were, respectively, incubated with different liposome and LipoDox samples for 4 hours, followed by incubation in a fresh medium for further 24 hours. For the X-ray exposure experiments, all three types of cells were radiated with 4 Gy, followed by incubation in a fresh medium for further 24 and 48 hours. Cell viability was assessed by using the same method as described above. For X-ray treatment of pure DNA molecules and mixture of DNA and verteporfin, 50 μL of antisense oligonucleotide solution (10 μg/mL) and 50 μL of mixture solution (10 μg/mL DNA and 32 μg/mL verteporfin) was respectively exposed to X-ray radiation with different dosage (1, 2 and 4 Gy). After treatment, the gel electrophoresis was carried out in 1.2% agarose gel in Tris-acetate-EDTA (TAE) buffer at 95 V for 45 min. The gel was stained with SYBR Safe DNA Gel Stain (Thermo Fisher) and photographed under UV light using a Bio-Rad imaging system.

## 5′-TGGTGCTTCCCAGCCACTAT-3′ (SEQ ID NO:1) (3' {FAM}, sugars by position and backbone not given here) [DNA molecules, antisense oligonucleotide against PAC1R gene, 10 μg/mL solution exposed to X-ray]
  damage to oligonucleotide after X-ray radiation (gel electrophoresis): did not cause obvious damage

From patent US12036282B2, “Liposomal system for drug delivery” (NewSouth Innovations PTY Limited, priority 2017, dated 2024)
